Data on 38 compounds can be found in the supplement of paper PMC12137928.

The subject of the test is HCT116. As to conditions: 72 h. An outline of the steps:
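Four-parameter Hill fits gave IC50 and maximal efficacy. The data were CellTiter-Glo luminescence readings in HCT116 cells, normalized so that vehicle was 0% and positive control was -100%, with pattern correction afterwards.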

Structures are written as SMILES. Where a name gives a salt, the structure may show the parent alone.

For the compound `CC(C)N1CCN(c2ccc(OCC3COC(Cn4cncn4)(c4ccc(Cl)cc4Cl)O3)cc2)CC1` (stereo unspecified) [Terconazole], the IC50 cell viability by setting is: (ICRF193 0 nM) over 45.8 µM; (ICRF193 200 nM) over 45.8 µM.

For `NC(=O)Cc1cccc(C(=O)c2ccccc2)c1N` [Nepafenac], the IC50 cell viability reads like this: (ICRF193 0 nM) over 45.8 µM; (ICRF193 200 nM) over 45.8 µM.

With `COc1ccc2[nH]c([S+]([O-])Cc3ncc(C)c(OC)c3C)nc2n1` (stereo unspecified) [Tenatoprazole], the IC50 cell viability runs as follows: (ICRF193 0 nM) over 45.8 µM; (ICRF193 200 nM) over 45.8 µM.

For `CCCNS(=O)(=O)Nc1ncnc(OCCOc2ncc(Br)cn2)c1-c1ccc(Br)cc1` [Macitentan], the IC50 cell viability is over 45.8 µM (ICRF193 0 nM) and over 45.8 µM (ICRF193 200 nM).

With `Cc1cccn2c(=O)c(-c3nnn[nH]3)cnc12` [Pemirolast potassium], the IC50 cell viability by setting is: (ICRF193 0 nM) over 45.8 µM; (ICRF193 200 nM) over 45.8 µM.

Compound `O=P1(NCCCl)OCCCN1CCCl` (stereo unspecified) [Ifomide] registered an IC50 cell viability (ICRF193 0 nM) of over 45.8 µM and an IC50 cell viability (ICRF193 200 nM) of over 45.8 µM.

Regarding `Cc1ccc(Cl)c(OCC(O)CNC(C)(C)C)c1` (stereo unspecified) [Bupranolol], the IC50 cell viability is over 45.8 µM (ICRF193 0 nM) and over 45.8 µM (ICRF193 200 nM).

With `CCC(=O)O[C@H]1CC[C@H]2[C@@H]3CC[C@H]4CC(=O)[C@H](C)C[C@]4(C)[C@H]3CC[C@]12C` [Drostanolone propionate], the IC50 cell viability runs as follows: (ICRF193 0 nM) over 45.8 µM; (ICRF193 200 nM) over 45.8 µM.

Take `CC(C)(C)C(=O)Oc1ccc(S(=O)(=O)Nc2ccccc2C(=O)NCC(=O)O)cc1` [Sivelestat sodium hydrate]: the IC50 cell viability is, setting by setting: (ICRF193 0 nM) over 45.8 µM; (ICRF193 200 nM) over 45.8 µM.

Consider `CC1(C)S[C@@H]2[C@H](NC(=O)[C@H](NC(=O)N3CCN(S(C)(=O)=O)C3=O)c3ccccc3)C(=O)N2[C@H]1C(=O)O` [Mezlocillin Sodium], for which the IC50 cell viability by setting is: (ICRF193 0 nM) over 45.8 µM; (ICRF193 200 nM) over 45.8 µM.

`Cc1ncc(CSSCc2cnc(C)c(O)c2CO)c(CO)c1O` [Pyrithioxin dihydrochloride] registered an IC50 cell viability (ICRF193 0 nM) of over 45.8 µM and an IC50 cell viability (ICRF193 200 nM) of over 45.8 µM.

`CC(=O)Nc1ccc(CC(=O)O)cc1` [4-Acetylaminophenylacetic acid]: the IC50 cell viability is, setting by setting: (ICRF193 0 nM) over 45.8 µM; (ICRF193 200 nM) over 45.8 µM.

`CC1(C)OC[C@@H](COC(=O)CCc2ccc(OC[C@@H](O)CNCCNC(=O)N3CCOCC3)cc2)O1` [Landiolol hydrochloride]: the IC50 cell viability reads like this: (ICRF193 0 nM) over 45.8 µM; (ICRF193 200 nM) over 45.8 µM.

As to `Cc1ccccc1OCC(O)CO` (stereo unspecified) [Mephenesin], the IC50 cell viability runs as follows: (ICRF193 0 nM) over 45.8 µM; (ICRF193 200 nM) over 45.8 µM.

In the case of `C[N+](C)(C)CCOC(=O)CCC(=O)OCC[N+](C)(C)C` [Succinylcholine chloride], the IC50 cell viability was over 45.8 µM (ICRF193 0 nM) and over 45.8 µM (ICRF193 200 nM).

`NS(=O)(=O)c1ccc(Cl)c(S(N)(=O)=O)c1` [Clofenamide] registered an IC50 cell viability (ICRF193 0 nM) of over 45.8 µM and an IC50 cell viability (ICRF193 200 nM) of over 45.8 µM.

As for `OCCOCCOCCO` [Triethylene glycol], the IC50 cell viability was over 45.8 µM (ICRF193 0 nM) and over 45.8 µM (ICRF193 200 nM).

`CC(C)OC(=O)C(C)(C)Oc1ccc(C(=O)c2ccc(Cl)cc2)cc1` [Fenofibrate] registered an IC50 cell viability (ICRF193 0 nM) of over 45.8 µM and an IC50 cell viability (ICRF193 200 nM) of over 45.8 µM.

Take `Cc1ccc(C(C)OC(=O)C2(C)CCC(C(=O)O)C2(C)C)cc1` (stereo unspecified) [Tocanfil]: the IC50 cell viability is, setting by setting: (ICRF193 0 nM) over 45.8 µM; (ICRF193 200 nM) over 45.8 µM.

For the compound `NC(=O)[C@H]1O[C@@H](O)[C@H](O)[C@@H](O)[C@@H]1O` [Glucuronamide], the IC50 cell viability by setting is: (ICRF193 0 nM) over 45.8 µM; (ICRF193 200 nM) over 45.8 µM.

`Nc1nc(=O)c2c([nH]1)NCC(CNc1ccc(C(=O)N[C@@H](CCC(=O)O)C(=O)O)cc1)N2C=O` (stereo partly specified) [LEUCOVORIN CALCIUM]: the IC50 cell viability (ICRF193 0 nM) is over 45.8 µM and the IC50 cell viability (ICRF193 200 nM) was over 45.8 µM.

On to `CC1(C)S[C@@H]2[C@H](/N=C/N3CCCCCC3)C(=O)N2[C@H]1C(=O)O` [Amdinocillin], for which the IC50 cell viability is, setting by setting: (ICRF193 0 nM) over 45.8 µM; (ICRF193 200 nM) over 45.8 µM.

With `CC1(C)S[C@@H]2[C@H](NC(=O)[C@H](N)c3ccccc3)C(=O)N2[C@H]1C(=O)O` [AMPICILLIN SODIUM], the IC50 cell viability (ICRF193 0 nM) is over 45.8 µM and the IC50 cell viability (ICRF193 200 nM) is over 45.8 µM.

For `CC(C)(O)C(Cl)(Cl)Cl` [1,1,1-Trichloro-2-methyl-2-propanol], the IC50 cell viability is, setting by setting: (ICRF193 0 nM) over 45.8 µM; (ICRF193 200 nM) over 45.8 µM.

Consider `Nc1nc(NC2CC2)c2ncn([C@H]3C=C[C@@H](CO)C3)c2n1` [ABACAVIR SULFATE], for which the IC50 cell viability was over 45.8 µM (ICRF193 0 nM) and over 45.8 µM (ICRF193 200 nM).

In the case of `C[N+](C)(C)CCO.[Cl-]` [Choline Chloride], the IC50 cell viability is, setting by setting: (ICRF193 0 nM) over 45.8 µM; (ICRF193 200 nM) over 45.8 µM.

For `O=C(OOC(=O)c1ccccc1)c1ccccc1` [Benzoyl peroxide], the IC50 cell viability reads like this: (ICRF193 0 nM) over 45.8 µM; (ICRF193 200 nM) over 45.8 µM.

With `C=C1CC[C@H](O)C/C1=C/C=C1\CCC[C@]2(C)[C@@H]([C@H](C)CC[C@H](O)C(C)(C)O)CC[C@@H]12` [(24S)-24,25-Dihydroxyvitamin D3], the IC50 cell viability was over 45.8 µM (ICRF193 0 nM) and over 45.8 µM (ICRF193 200 nM).

In the case of `CN1C(=O)CC(c2ccccc2)C1=O` (stereo unspecified) [Phensuximide], the IC50 cell viability by setting is: (ICRF193 0 nM) over 45.8 µM; (ICRF193 200 nM) over 45.8 µM.

`C=CCOc1ccccc1OCC(O)CNC(C)C` (stereo unspecified) [Oxprenolol hydrochloride]: the IC50 cell viability is, setting by setting: (ICRF193 0 nM) over 45.8 µM; (ICRF193 200 nM) over 45.8 µM.

In the case of `O=C(CCC1CCN(Cc2ccccc2)CC1)c1ccc2c(c1)NCCCC2` [Zanapezil fumerate], the IC50 cell viability is over 45.8 µM (ICRF193 0 nM) and over 45.8 µM (ICRF193 200 nM).

`CO[C@H]1C[C@@H]2CC[C@@H](C)[C@@](O)(O2)C(=O)C(=O)N2CCCC[C@H]2C(=O)O[C@H]([C@H](C)C[C@@H]2CC[C@@H](OCCO)[C@H](OC)C2)CC(=O)[C@H](C)/C=C(\C)[C@@H](O)[C@@H](OC)C(=O)[C@H](C)C[C@H](C)/C=C/C=C/C=C/1C` [Everolimus]: the IC50 cell viability reads like this: (ICRF193 0 nM) over 45.8 µM; (ICRF193 200 nM) over 45.8 µM.

Take `C=C1/C(=C\C=C2/CCC[C@]3(C)[C@@H]([C@H](C)CCCC(C)(C)O)CC[C@@H]23)C[C@@H](O)C[C@@H]1O` [Calcitriol]: the IC50 cell viability is over 45.8 µM (ICRF193 0 nM) and over 45.8 µM (ICRF193 200 nM).

Turning to `CC(C)=CCN1CC[C@]2(C)c3cc(O)ccc3C[C@H]1[C@H]2C` [(+)-Pentazocine succinate], the IC50 cell viability is over 45.8 µM (ICRF193 0 nM) and over 45.8 µM (ICRF193 200 nM).

Take `Nc1nc(-n2cc(C(=O)O)c(=O)c3cc(F)c(N4CC(O)C4)c(Cl)c32)c(F)cc1F` [Delafloxacin (meglumine)]: the IC50 cell viability (ICRF193 0 nM) was over 45.8 µM and the IC50 cell viability (ICRF193 200 nM) is over 45.8 µM.

Take `CC1=C(CC(=O)O)c2cc(F)ccc2/C1=C\c1ccc([S+](C)[O-])cc1` (stereo unspecified) [Sulindac]: the IC50 cell viability is, setting by setting: (ICRF193 0 nM) over 45.8 µM; (ICRF193 200 nM) over 45.8 µM.

Regarding `N[C@@H]1CN(c2c(F)cc3c(=O)c(C(=O)O)cn([C@@H]4C[C@@H]4F)c3c2Cl)CC12CC2` [Sitafloxacin hydrate], the IC50 cell viability runs as follows: (ICRF193 0 nM) over 45.8 µM; (ICRF193 200 nM) over 45.8 µM.

`CC(=O)OCC(=O)[C@@]1(O)CC[C@H]2[C@@H]3CCC4=CC(=O)CC[C@]4(C)[C@H]3[C@@H](O)C[C@@]21C` [Hydrocortisone acetate]: the IC50 cell viability was over 45.8 µM (ICRF193 0 nM) and over 45.8 µM (ICRF193 200 nM).
